# Test system: Adjuvant induced rheumatoid arthritis in rats
# Assay: In vivo anti-arthritic activity: Freund's complete adjuvant induced arthritis in rats
# Parameters: species or system Male Wistar rats
# Details: reference group, dose not given
# Experimental: Male Wistar rats weighing […] were orally dosed with 100, 200 and 400 mg/kg of spent turmeric polysaccharide from day 1-day 28. The animals were given intra-dermal injection of Freund's complete adjuvant in the paw at a dosage level of 0.1 ml on days 7, 15, 21 and 28 of the study to induce arthritis. Oedema induced by the adjuvant was measured as increase in paw volumes on days 7, 15, 21 and 28. At the end of the study, animals were sacrificed and blood and tissue collected for analyzing the inflammatory parameters. The inflammatory parameters studied included, • a. Inflammation in the paws • b. Blood Biochemistry • c. Lipid Per oxidation • d. Reduced Glutathione in serum • e. Superoxide dismutase activity in serum • f. Levels of Acid and Alkaline phosphatase • g. TNF-α levels • h. IL6 levels
smiles,measurement,value
"CC(=O)Oc1ccccc1C(=O)O [ASA, Acetyl salicylic acid]",ACP (acid phosphatase),6.71 ± 0.06 IU/ml
same,ALP (alkaline phosphatase),104.18 ± 0.94 IU/ml
same,LIPID PEROXIDATION malondialdehyde formed,18.19 ± 0.10 nm/g tissue
same,Platelets,232 ± 2.65 10^9/L
same,Red blood corpuscles-RBCs,4.70 ± 0.04 10^6 Cells /μl
same,Reduced Glutathione,595.69 ± 0.64 μg/g tissue
same,SUPEROXIDE DISMUTASE,16.39 ± 0.01 g activity in tissue/min
same,White blood corpuscles-WBCs,7800.0 ± 85.63 Cells/μl
